Data published in paper PMC7954794, “Protein context shapes the specificity of SH3 domain-mediated interactions in vivo” (Nature Communications, 2021).

Tests used:
ABP1 = assay: DHFR-PCA on solid medium, bait ABP1 (Fig. 1B); type: cell-based, Saccharomyces cerevisiae; settings: bait ABP1, label = prey; 2-4 replicates
Text: (§1) Supplement 41467_2021_21873_MOESM8_ESM.xlsx, sheet "Fig1B" | column: medsize; medrep; Ratio; Score

BEM1-1 = assay: DHFR-PCA on solid medium, bait BEM1-1 (Fig. 1B); type: cell-based, Saccharomyces cerevisiae; settings: bait BEM1-1, label = prey; for medrep (log2 median colony size normalized to plate background, PCA score): 2-8 replicates; for Ratio (SH3-deleted/WT medrep): only significant differences showed, PPIs completely lost have a ratio of 0.1 and the gained PPIs 2.5
Text: as §1

BEM1-2 = assay: DHFR-PCA on solid medium, bait BEM1-2 (Fig. 1B); type: cell-based, Saccharomyces cerevisiae; settings: bait BEM1-2, label = prey; for medrep (log2 median colony size normalized to plate background, PCA score): 2-8 replicates; for Ratio (SH3-deleted/WT medrep): only significant differences showed, PPIs completely lost have a ratio of 0.1 and the gained PPIs 2.5
Text: as §1

[1] = test system: 575 putative partners (preys) of 22 WT SH3-containing proteins; assay: DHFR-PCA on solid medium, WT and SH3-deleted baits (Fig. 1B); type: cell-based, Saccharomyces cerevisiae; parameters: key to Score: 0: SH3-independent; 1: SH3-dependent PPIs; 2: SH3-inhibited PPIs; settings: for medrep (log2 median colony size normalized to plate background, PCA score): label = prey
Text: To assess the requirement of SH3 domains for PPIs in vivo, we first measured binary interactions between 22 WT SH3-containing proteins (Supplementary Fig. 1A) as baits and 575 putative partners from their interconnected signaling networks using the dihydrofolate reductase protein–fragment complementation assay (DHFR-PCA) in the budding yeast Saccharomyces cerevisiae. About 33% (202/607) of the PPIs detected were described before, mostly by direct methods (Supplementary Fig. 1B, C)[11]. We repeated the experiments with baits in which the SH3s were individually replaced with a flexible linker by genome editing (SH3 domain deletion/stuffing, Fig. 1A). The stuffer DNA sequence ([…]) codes for a small flexible poly-Gly with Ser peptide ([…]) that is inspired by previous experiments[12],[13]. About a third of the SH3-containing protein interactome is qualitatively or quantitatively SH3-dependent (171 PPIs out of 607, Fig. 1B and Supplementary Fig. 1B, C). We validated the vast majority of the quantitative changes in low-throughput experiments and excluded that this is simply due to changes in protein abundance in most cases (Supplementary Fig. 1D–G). SH3-binding motifs[14] are more frequent in the SH3-dependent PPI partners when compared to sequences from random proteins, SH3-independent PPI partners or PPI partners that are stronger or gained following SH3 deletions (p values = 1.5 × 10^−17, 0.0038 and 2.1 × 10^−08, respectively; Mann–Whitney test, one-tailed, Fig. 1C). The changes we measure are therefore enriched for PPIs that depend on the direct interactions of the domains with the PPI partners.
The complete list of strains, primers, and gRNAs used in this study can be found in Supplementary Tables 1–3. All constructed yeast strains were validated by polymerase chain reaction (PCR) and confirmed by Sanger sequencing of the locus of interest. Bait strains for the DHFR-PCA experiments were constructed as follows. The genes of interest were fused at their genomic 3′ end by replacing the stop codon with a linker ([…]), the DHFR F[1,2] followed by a smaller linker (GGGGS), a 1× FLAG tag ([…]) and the NATMX4 resistance cassette via homologous recombination (all amplified from pAG25-DHFR[1,2]-linker-FLAG). The set of 615 prey strains (DHFR F[3] fusions in the BY4742 background) were retrieved from the Yeast Protein Interactome Collection[43] with the exception of 73 that were reconstructed (Supplementary Tables 1 and 2). Knockout strains were taken from the yeast knockout collection except for ABP1, BEM1, BZZ1, and SLA1, which were reconstructed by replacing the ORFs with the NATMX4 resistance cassette by homologous recombination in the BY4741 background.
Yeast SH3 domain genomic sequences were replaced by CRISPR–Cas9 genome editing. Each SH3 domain (as defined by the SMART database V8.0 except for Ysc84 SH3 (as defined by PROSITE), see Source Data for all SH3 sequences and Supplementary Table 1 for primers used) was specifically targeted by one gRNA[46]. Yeast competent cells were co-transformed with a pCAS plasmid (Addgene plasmid 60847[47]) expressing both the gRNA of interest and Streptococcus pyogenes Cas9[46] and a donor DNA sequence (stuffer) with 60 bp homology arms surrounding the SH3 DNA sequence. The Stuffer DNA was either PCR amplified or digested from a plasmid. The stuffer DNA sequence ([…]) codes for a small flexible linker ([…]) inspired by protein linkers used in structural biology[12],[13]. This type of linker is frequently used for fusing proteins without affecting the structure of the linked proteins.
The overall DHFR-PCA pipeline is based on Tarassov et al.[43] and the procedures have also been published as a visualized protocol. The screens were performed with robotically manipulated pin tools (BM5-SC1, S&P Robotics Inc.). First, the preys were cherry-picked from 96-well plates to omnitrays in a 384 format on YPD + HPH solid media. […]

BBC1 = assay: DHFR-PCA on solid medium, bait BBC1 (Fig. 1B); type: cell-based, Saccharomyces cerevisiae; settings: bait BBC1, label = prey; for medrep (log2 median colony size normalized to plate background, PCA score): 2-4 replicates
Text: as §1

BOI2 = assay: DHFR-PCA on solid medium, bait BOI2 (Fig. 1B); type: cell-based, Saccharomyces cerevisiae; settings: bait BOI2, label = prey; for medrep (log2 median colony size normalized to plate background, PCA score): 3-8 replicates; for Ratio (SH3-deleted/WT medrep): only significant differences showed, PPIs completely lost have a ratio of 0.1 and the gained PPIs 2.5
Text: as §1

P130CAS/BCAR1 = assay: Co-immunoprecipitation / Western blot NCK2-P130CAS/BCAR1 (Fig. S6C-D); type: cell-based, human; settings: Prey P130CAS, sheet FigS6A-D
Experimental: Human embryonic kidney 293T cells (HEK293T, ATCC:CRL-3216) were grown in Dulbecco’s Modified Eagle’s medium (DMEM) high glucose complemented with 10% fetal calf serum under 5% CO2 at 37 °C. Transient expression of cDNA in cells was performed by polyethylenimine (PEI, Millipore Sigma) transfections. Enrichment of phospho-dependent PPIs was done by treating HEK293T cells with the tyrosine phosphatase inhibitor pervanadate, freshly made by mixing 4 mM orthovanadate (Millipore Sigma) with 30% H2O2 (Millipore Sigma) in water in a 200:1 volume ratio.
(§2) For the experiments with HEK293T cells (1 × 10cm confluent dish for WB and 3 × 15cm for MS), cells were washed in ice-cold PBS and lysed in lysis buffer (20 mM Tris-HCl pH 7.4, 150 mM NaCl, 1 mM EDTA, 0.5% sodium deoxycholate (Millipore Sigma), 10 mM beta-glycerophosphate (Millipore Sigma), 10 mM sodium pyrophosphate (Millipore Sigma), 50 mM NaF (Millipore Sigma)). Protease inhibitors were added to the lysis buffer (P8340 (Millipore Sigma) for WB and PMSF 1 mM, aprotinin 10 µg/mL, leupeptin 10 µg/mL and pepstatin 10 µg/mL (all Millipore Sigma) for MS). Cells were scraped in the lysis buffer and lysed at 4 °C for 20 min and centrifuged for another 20 min at 20,000 g at 4 °C. Bait proteins from the supernatant were immunoprecipitated for 90 min at 4 °C with FLAG-M2 agarose beads (Millipore Sigma) and washed three times in the lysis buffer. Beads were then used for WB or MS experiments (see below).
(§3) Protein extracts and affinity-purified baits from yeast and human lysed cells were migrated on 10% polyacrylamide gels. The separated proteins were then transferred to nitrocellulose membranes. Validation of correct protein loading was done with ponceau staining of the membranes. Before the primary antibody incubations, membranes were blocked in 5% milk. Protein signals were detected on an Amersham Imager 600RGB (GE Healthcare) following the incubation of the membranes with the appropriate HRP-conjugated secondary antibodies and the Clarity Western ECL Substrate (Bio-Rad). The antibodies used in this study are M2-HRP (A8592, Sigma, 1/50,000), rabbit anti-FLAG (F7425, Sigma, 1/1000), PAK (SC-881, Santa Cruz, 1/200), p130cas/BCAR1 (SC-860, Santa Cruz, 1/200), actin (Cell Signaling Technology, 1/2000), anti-mouse HRP (Cell Signaling Technology, 1/10,000) and anti-rabbit HRP (Cell Signaling Technology, 1/10,000). The quantification of the WB signals was performed with the Amersham Imager 600 analysis software (GE Healthcare).
(§4) Supplementary Fig. 6| NCK2 SH3 shuffling affects its interactions with PAK1 and P130CAS/BCAR1 in cells but only slightly alters the availability of the SH3 binding pockets in vitro. A, Western blot analysis of NCK2 SH3-shuffled proteins interaction with PAK1. Each bait is N-terminally fused to a 3XFLAG tag. Loading corresponds to Ponceau staining of the nitrocellulose membrane. Experiment was performed in four replicates in HEK293T cells. B, Western blot quantification of PAK1 co-immunoprecipitation with NCK2.
(§5) Average log2 ratio relative to the WT protein is shown (NCK2mut/NCK2WT, WT NCK2 log2 ratio = 0). Ratios from replicates were compared t o WT NCK2 via pairwise ANOVA statistical […]
(§6) bars indicate the SD. C, Western blot analysis of NCK2 SH3-shuffled proteins association with SH2 target P130CAS/BCAR1. The experiment was performed in four replicates in HEK293T cells stimulated with the tyrosine phosphatase inhibitor pervanadate. D, Quantification of the Western blot signals of P130CAS co-immunoprecipitation with NCK2 as in B,. The four ratios of the replicates were compared to WT NCK2 via pairwise ANOVA statistical test (p -values: […]

PAK1 = assay: Co-immunoprecipitation / Western blot NCK2-PAK1 (Fig. S6A-B); type: cell-based, human; settings: Prey PAK1, sheet FigS6A-D
Experimental: as §2, §3, §4, §5, §6
(1 picture or pasted object on this page, not shown here)

BOI1 = assay: DHFR-PCA on solid medium, bait BOI1 (Fig. 1B); type: cell-based, Saccharomyces cerevisiae; settings: bait BOI1, label = prey; for medrep (log2 median colony size normalized to plate background, PCA score): 3-8 replicates; for Ratio (SH3-deleted/WT medrep): only significant differences showed, PPIs completely lost have a ratio of 0.1 and the gained PPIs 2.5
Text: as §1

BUD14 = assay: DHFR-PCA on solid medium, bait BUD14 (Fig. 1B); type: cell-based, Saccharomyces cerevisiae; settings: bait BUD14, label = prey
Text: as §1

BZZ1-1 = assay: DHFR-PCA on solid medium, bait BZZ1-1 (Fig. 1B); type: cell-based, Saccharomyces cerevisiae; settings: bait BZZ1-1, label = prey; 4 replicates
Text: Supplement 41467_2021_21873_MOESM8_ESM.xlsx, sheet "Fig1B" | column: medsize; medrep; Score

[2] = bait SLA1-3, DHFR-PCA, Replicates 4 (2 for YCR009C, YDR388W, YIL033C)
[3] = average of R1-R4, SD in next column
[4] = only significant differences showed, PPIs completely lost have a ratio of 0.1 and the gained PPIs 2.5

Substance | medrep (log2 median colony size normalized to plate background, PCA score) (ABP1) | medrep (log2 median colony size normalized to plate background, PCA score) (BEM1-1) | Ratio (SH3-deleted/WT medrep) (BEM1-1) | medrep (log2 median colony size normalized to plate background, PCA score) (BEM1-2) | Ratio (SH3-deleted/WT medrep) (BEM1-2) | medrep (log2 median colony size normalized to plate background, PCA score) [1, 2] | Score ([1]; bait SLA1-3, label = prey) | medrep (log2 median colony size normalized to plate background, PCA score) (BBC1) | medrep (log2 median colony size normalized to plate background, PCA score) (BOI2) | Ratio (SH3-deleted/WT medrep) (BOI2) | medrep (log2 median colony size normalized to plate background, PCA score) (BOI1) | Ratio (SH3-deleted/WT medrep) (BOI1) | further results
YMR109W (PMFEAAYDFPGSGSPSELPLKKGDVIYITREEPSGWSLGKLLDGSKEGWVPTAYMKPHS) | 4.62 | 1.531 | 0.1 | 1.531 | 0.1 | 3.8664 | 0 | 5.231 | 1.504 | 0.1 |  |  | medrep (log2 median colony size normalized to plate background, PCA score) ([1]; bait SLA1-2, DHFR-PCA, Replicates 4 (2 for YCR009C, YDR388W)): 3.8664; Score ([1]; bait SLA1-2, label = prey): 1; Ratio (SH3-deleted/WT medrep) ([1]; bait SLA1-2, label = prey, only significant differences shown, PPIs completely lost have a ratio of 0.1, gained PPIs 2.5): 0.1
NCK2 WT |  |  |  |  |  |  |  |  |  |  |  |  | Log2 ratio average (P130CAS/BCAR1; [3]): 0; Log2 ratio on WT R1 (P130CAS/BCAR1; replicate R1): 0; Ratio on WT R1 (P130CAS/BCAR1; replicate R1): 1; Log2 ratio on WT R3 (P130CAS/BCAR1; replicate R3): 0; Ratio on WT R3 (P130CAS/BCAR1; replicate R3): 1; Log2 ratio on WT R4 (P130CAS/BCAR1; replicate R4): 0; Ratio on WT R4 (P130CAS/BCAR1; replicate R4): 1; Log2 ratio average (PAK1; [3]): 0; Log2 ratio on WT R1 (PAK1; replicate R1): 0; Ratio on WT R1 (PAK1; replicate R1): 1; Log2 ratio on WT R3 (PAK1; replicate R3): 0; Ratio on WT R3 (PAK1; replicate R3): 1; Log2 ratio on WT R4 (PAK1; replicate R4): 0; Ratio on WT R4 (PAK1; replicate R4): 1
YGL206C | 4.275 |  |  | 1.4327 | 2.5 | 4.577 | 0 | 1.387 |  |  | 1.512 | 0.1 | Ratio (SH3-deleted/WT medrep) (BBC1; [4]): 0.4969
YER155C |  |  |  |  |  |  |  |  | 1.649 | 0.1 | 1.496 | 0.1 | medrep (log2 median colony size normalized to plate background, PCA score) (BUD14; 4 replicates): 1.311; Ratio (SH3-deleted/WT medrep) (BUD14; [4]): 0.1
YCR088W (PWATAEYDYDAAEDNELTFVENDKIINIEFVDDDWWLGELEKDGSKGLFPSNYVSLGN) | 5.528 | 1.996 | 0.1 | 1.996 |  | 4.931 | 0 | 4.833 | 2.0061 |  |  |  | medrep (log2 median colony size normalized to plate background, PCA score) (BZZ1-1): 4.666
